Key:
Format in all cases: in vivo, human
[1] = system: adult subjects with schizophrenia; test: CGI responder rate, Clinical Study One
Protocol: There were five treatment groups in this study. […] Study medication was administered once daily. After Baseline measurements were performed, the titration phase was begun. Bifeprunox treated subjects were titrated up to 5 mg, 10 mg or 20 mg according to a standardized titration schedule (Day 1: 0.125 mg, Day 2: 0.25 mg, Day 3: 0.5 mg, Day 4: 1.0 mg, Day 5: 2.0 mg, Day 6: 5.0 mg, Day 7: 10.0 mg, Day 8: 20 mg). When the assigned dose was reached, subjects were maintained at that dose for the remainder of the six-week treatment period.
CLINICAL STUDY ONE: A CGI responder is defined as a subject who is categorized as “very much improved” or “much improved” on the CGI Improvement scale.

[2] = system: adult subjects with schizophrenia; test: BPRS total score, Clinical Study Two; details: for Change from Baseline in BPRS Total Score, Mean (SD) / Change from Baseline in BPRS Total Score, Median / Change from Baseline in BPRS Total Score, Trt Effect (bifeprunox—placebo) / mean change (SD) from Baseline to Endpoint in BPRS total score: LOCF; for Change from Baseline in BPRS Total Score, Mean (SD) / Change from Baseline in BPRS Total Score, Median / Change from Baseline in BPRS Total Score, Trt Effect (bifeprunox—placebo): ITT population; for BPRS total score, treatment effect (bifeprunox—placebo): Endpoint LOCF; for mean change (SD) from Baseline to Endpoint in BPRS total score: ITT
Protocol: Rating scale assessments were performed weekly, except for week 5, to measure the change from baseline to endpoint of the PANSS total score. Other assessments included: PANSS positive symptom subscale score, PANSS negative symptom subscale score, PANSS general pschopathology subscale score, BPRS total score, BPRS psychosis score, the CGI-S score, the CGI-I score, responder rates based on the PANSS total score, and the Calgary Depression Scale for Schizophrenia (CDSS). […]
Subjects who completed this study had the option to continue in the long-term. […] Blood samples were also obtained at Screening/Baseline, Week 3, and Week 6 for clinical laboratory assessments.

[3] = system: adult subjects with schizophrenia; test: PANSS total score, Clinical Study Two (6-week, risperidone-referenced); details: LOCF; for Change from Baseline in PANSS Total Score, Mean (SD) / Change from Baseline in PANSS Total Score, Median / PANSS Total Score, Trt Effect (difference between bifeprunox and placebo): ITT; for PANSS Total Score, Trt Effect (difference between bifeprunox and placebo): ANCOVA
Protocol: Treatment started with a single-blind placebo lead-in period of at least three days, followed by titration from 0.25 mg up to 30 mg/day or 40 mg/day of bifeprunox for bifeprunox-treated subjects.
Rating scale assessments were performed weekly, except for week 5, to measure the change from baseline to endpoint of the PANSS total score. Other assessments included: PANSS positive symptom subscale score, PANSS negative symptom subscale score, PANSS general pschopathology subscale score, BPRS total score, BPRS psychosis score, the CGI-S score, the CGI-I score, responder rates based on the PANSS total score, and the Calgary Depression Scale for Schizophrenia (CDSS).
Subjects who completed this study had the option to continue in the long-term. […] After completing a Single-Blind placebo lead-in period of at least three days, bifeprunox-treated subjects were titrated from 0.25 mg up to 30 mg/day or 40 mg/day according to a standardized titration scheme over an eight-day period. When the assigned dose was reached, subjects were maintained at that dose for the remainder of the six week treatment period. […] Rating scale assessments for efficacy and abnormal movement disorders were done weekly except for Week 5. Safety assessments were performed at Screening, during treatment and at the end of the study. Subject satisfaction with study medication was assessed at Week 6. Samples of blood were obtained at Weeks 2, 4, and 6 for determination of bifeprunox in plasma. Blood samples were also obtained at Screening/Baseline, Week 3, and Week 6 for clinical laboratory assessments.
Diagnosis and Main Criteria for Inclusion: Male or female subjects 18-75 years of age with schizophrenia (per DSM-IV-TR criteria). Subjects had to have a total score on the PANSS between 70 and 120; at least two of four PANSS items (conceptual disorganization, hallucinatory behavior, suspiciousness, unusual thought content) had to have a score ≧4; and the score on the CGI-S had to be at least 4.

[4] = system: adult subjects with schizophrenia; test: PANSS positive symptom subscale score, Clinical Study Three; details: LOCF, ITT; for PANSS Positive Symptom Subscale Score, Trt Effect (bifeprunox—placebo): ANCOVA
Source text: SECONDARY OBJECTIVES To assess the efficacy of bifeprunox in treating schizophrenia using the Positive Symptom sub-scale score of the PANSS, the Negative Symptom sub-scale score of the PANSS, the General Psychopathology sub-scale of the PANSS, Brief Psychiatric Rating Scale (BPRS) total score derived from the PANSS, BPRS psychosis score derived from the PANSS, the Clinical Global Impression Severity of Illness score (CGI-S), the Clinical Global Impression Improvement score (CGI-I), CGI-I responder rate, PANSS responder rate based on the PANSS total score, Calgary Depression Scale for Schizophrenia (CDSS), and Subject Satisfaction rating.
There were four treatment arms in this study, approximately 144 subjects per arm. […] After completing the Single-Blind Placebo Lead-in Period of at least three days, bifeprunox-treated subjects were titrated from 0.25 mg up to 20 mg/day or 30 mg/day according to a standardized titration scheme over a seven- or eight-day period, respectively. When the assigned dose was reached, subjects were maintained at that dose for the remainder of the six week treatment period. […] Subjects were hospitalized (if not already inpatients) after eligibility for study entry was verified, starting from the Screening Visit until at least 10 days after Baseline. Subjects could be hospitalized longer than 10 days if considered medically necessary by the Investigator. Rating scale assessments for efficacy and abnormal movement disorders were done weekly except for Week 5. […] Subject satisfaction with study medication was assessed at Week 6.

[5] = Bifeprunox 30 mg, Week 6/Endpoint
[6] = Bifeprunox 40 mg, Week 6/Endpoint
[7] = Bifeprunox 20 mg, Week 6/Endpoint

O=c1[nH]c2cccc(N3CCN(Cc4cccc(-c5ccccc5)c4)CC3)c2o1 [Bifeprunox, 7-[4-([1,1′-biphenyl]-3-ylmethyl)-1-piperazinyl]-2(3H)-benzoxazolone]
CGI Responder at Endpoint (LOCF), % ([1]; 5 mg): 33%
CGI Responder at Endpoint (LOCF), % ([1]; 10 mg): 19%
CGI Responder at Endpoint (LOCF), % ([1]; 20 mg): 25%
Change from Baseline in BPRS Total Score, Mean (SD) ([2]; Bifeprunox 30 mg, Week 1): −3.8 (7.0)
Change from Baseline in BPRS Total Score, Median ([2]; Bifeprunox 30 mg, Week 1): −3
Change from Baseline in BPRS Total Score, Mean (SD) ([2]; Bifeprunox 30 mg, Week 2): −7.0 (9.5)
Change from Baseline in BPRS Total Score, Median ([2]; Bifeprunox 30 mg, Week 2): −6
Change from Baseline in BPRS Total Score, Mean (SD) ([2]; Bifeprunox 30 mg, Week 3): −7.93 (10.7)
Change from Baseline in BPRS Total Score, Median ([2]; Bifeprunox 30 mg, Week 3): −6
Change from Baseline in BPRS Total Score, Mean (SD) ([2]; Bifeprunox 30 mg, Week 4): −8.2 (11.5)
Change from Baseline in BPRS Total Score, Median ([2]; Bifeprunox 30 mg, Week 4): −7
Change from Baseline in BPRS Total Score, Mean (SD) [2, 5]: −8.1 (12.3)
Change from Baseline in BPRS Total Score, Median [2, 5]: −7
Change from Baseline in BPRS Total Score, Trt Effect (bifeprunox—placebo) [2, 5]: −3.2
Change from Baseline in BPRS Total Score, Mean (SD) ([2]; Bifeprunox 40 mg, Week 1): −4.3 (7.1)
Change from Baseline in BPRS Total Score, Median ([2]; Bifeprunox 40 mg, Week 1): −4
Change from Baseline in BPRS Total Score, Mean (SD) ([2]; Bifeprunox 40 mg, Week 2): −5.5 (9.3)
Change from Baseline in BPRS Total Score, Median ([2]; Bifeprunox 40 mg, Week 2): −6
Change from Baseline in BPRS Total Score, Mean (SD) ([2]; Bifeprunox 40 mg, Week 3): −6.3 (10.3)
Change from Baseline in BPRS Total Score, Median ([2]; Bifeprunox 40 mg, Week 3): −6
Change from Baseline in BPRS Total Score, Mean (SD) ([2]; Bifeprunox 40 mg, Week 4): −5.7 (10.9)
Change from Baseline in BPRS Total Score, Median ([2]; Bifeprunox 40 mg, Week 4): −4
Change from Baseline in BPRS Total Score, Mean (SD) [2, 6]: −6.5 (11.7)
Change from Baseline in BPRS Total Score, Median [2, 6]: −5
Change from Baseline in BPRS Total Score, Trt Effect (bifeprunox—placebo) [2, 6]: −1.9
BPRS total score, treatment effect (bifeprunox—placebo) ([2]; bifeprunox 30 mg): −3.2
mean change (SD) from Baseline to Endpoint in BPRS total score ([2]; bifeprunox 30 mg): −8.1 (12.3)
BPRS total score, treatment effect (bifeprunox—placebo) ([2]; bifeprunox 40 mg): −1.9
mean change (SD) from Baseline to Endpoint in BPRS total score ([2]; bifeprunox 40 mg): −6.5 (11.7)
Change from Baseline in PANSS Total Score, Mean (SD) ([3]; Bifeprunox 30 mg, Week 1): −6.6 (11.8)
Change from Baseline in PANSS Total Score, Median ([3]; Bifeprunox 30 mg, Week 1): −5
Change from Baseline in PANSS Total Score, Mean (SD) ([3]; Bifeprunox 30 mg, Week 2): −11.6 (15.5)
Change from Baseline in PANSS Total Score, Median ([3]; Bifeprunox 30 mg, Week 2): −10
Change from Baseline in PANSS Total Score, Mean (SD) ([3]; Bifeprunox 30 mg, Week 3): −13.3 (17.8)
Change from Baseline in PANSS Total Score, Median ([3]; Bifeprunox 30 mg, Week 3): −10
Change from Baseline in PANSS Total Score, Mean (SD) ([3]; Bifeprunox 30 mg, Week 4): −13.6 (18.9)
Change from Baseline in PANSS Total Score, Median ([3]; Bifeprunox 30 mg, Week 4): −10
Change from Baseline in PANSS Total Score, Mean (SD) [3, 5]: −13.5 (20.1)
Change from Baseline in PANSS Total Score, Median [3, 5]: −10
PANSS Total Score, Trt Effect (difference between bifeprunox and placebo) [3, 5]: −5.9
Change from Baseline in PANSS Total Score, Mean (SD) ([3]; Bifeprunox 40 mg, Week 1): −6.7 (11.5)
Change from Baseline in PANSS Total Score, Median ([3]; Bifeprunox 40 mg, Week 1): −6
Change from Baseline in PANSS Total Score, Mean (SD) ([3]; Bifeprunox 40 mg, Week 2): −8.9 (15.6)
Change from Baseline in PANSS Total Score, Median ([3]; Bifeprunox 40 mg, Week 2): −8
Change from Baseline in PANSS Total Score, Mean (SD) ([3]; Bifeprunox 40 mg, Week 3): −10.0 (17.8)
Change from Baseline in PANSS Total Score, Median ([3]; Bifeprunox 40 mg, Week 3): −10
Change from Baseline in PANSS Total Score, Mean (SD) ([3]; Bifeprunox 40 mg, Week 4): −9.2 (18.8)
Change from Baseline in PANSS Total Score, Median ([3]; Bifeprunox 40 mg, Week 4): −7
Change from Baseline in PANSS Total Score, Mean (SD) [3, 6]: −10.3 (20.5)
Change from Baseline in PANSS Total Score, Median [3, 6]: −7
PANSS Total Score, Trt Effect (difference between bifeprunox and placebo) [3, 6]: −3.2
difference from placebo, change from Baseline to Endpoint in PANSS total score ([3]; bifeprunox 30 mg (b57 prints 20 mg)): statistically significant difference from placebo
greater improvement from Baseline to Endpoint in PANSS total score compared with placebo ([3]; bifeprunox 30 mg): 5.9 point
PANSS Total Score, treatment effect versus placebo ([3]; bifeprunox 30 mg, week 2): −5.6
PANSS Total Score, treatment effect versus placebo ([3]; bifeprunox 30 mg, week 4): −6.3
difference from placebo, change from Baseline to Endpoint in PANSS total score ([3]; bifeprunox 40 mg): not significantly different from the placebo group
Change from Baseline in PANSS Positive Symptom Subscale Score, Mean (SD) ([4]; Bifeprunox 20 mg, Week 1): −1.6 (3.7)
Change from Baseline in PANSS Positive Symptom Subscale Score, Median ([4]; Bifeprunox 20 mg, Week 1): −2
Change from Baseline in PANSS Positive Symptom Subscale Score, Mean (SD) ([4]; Bifeprunox 20 mg, Week 2): −3.0 (4.7)
Change from Baseline in PANSS Positive Symptom Subscale Score, Median ([4]; Bifeprunox 20 mg, Week 2): −3
Change from Baseline in PANSS Positive Symptom Subscale Score, Mean (SD) ([4]; Bifeprunox 20 mg, Week 3): −3.8 (5.2)
Change from Baseline in PANSS Positive Symptom Subscale Score, Median ([4]; Bifeprunox 20 mg, Week 3): −3
Change from Baseline in PANSS Positive Symptom Subscale Score, Mean (SD) ([4]; Bifeprunox 20 mg, Week 4): −4.2 (5.7)
Change from Baseline in PANSS Positive Symptom Subscale Score, Median ([4]; Bifeprunox 20 mg, Week 4): −4
Change from Baseline in PANSS Positive Symptom Subscale Score, Mean (SD) [4, 7]: −4.3 (6.1)
Change from Baseline in PANSS Positive Symptom Subscale Score, Median [4, 7]: −4
PANSS Positive Symptom Subscale Score, Trt Effect (bifeprunox—placebo) [4, 7]: −1.1
Change from Baseline in PANSS Positive Symptom Subscale Score, Mean (SD) ([4]; Bifeprunox 30 mg, Week 1): −2.0 (3.8)
Change from Baseline in PANSS Positive Symptom Subscale Score, Median ([4]; Bifeprunox 30 mg, Week 1): −2
Change from Baseline in PANSS Positive Symptom Subscale Score, Mean (SD) ([4]; Bifeprunox 30 mg, Week 2): −2.8 (5.1)
Change from Baseline in PANSS Positive Symptom Subscale Score, Median ([4]; Bifeprunox 30 mg, Week 2): −3
Change from Baseline in PANSS Positive Symptom Subscale Score, Mean (SD) ([4]; Bifeprunox 30 mg, Week 3): −3.6 (6.0)
Change from Baseline in PANSS Positive Symptom Subscale Score, Median ([4]; Bifeprunox 30 mg, Week 3): −4
Change from Baseline in PANSS Positive Symptom Subscale Score, Mean (SD) ([4]; Bifeprunox 30 mg, Week 4): −4.0 (6.3)
Change from Baseline in PANSS Positive Symptom Subscale Score, Median ([4]; Bifeprunox 30 mg, Week 4): −4
Change from Baseline in PANSS Positive Symptom Subscale Score, Mean (SD) [4, 5]: −4.2 (6.8)
Change from Baseline in PANSS Positive Symptom Subscale Score, Median [4, 5]: −5
PANSS Positive Symptom Subscale Score, Trt Effect (bifeprunox—placebo) [4, 5]: −0.7
